Results on seven compounds are retold here after patent publication US9051342B2 (priority 2004, dated 2015).

For series [1], the system named is luciferase with nonsense mutation in a specific codon context (UGAA, UGAC, UAAA or UAAC). As to the kind of experiment: Western blot of luciferase protein produced by suppression of the nonsense mutation. It is filed as cell-based, Human embryonic kidney cells (293 cells). Particulars: 293 cells treated with compound, continuation lines list further codon contexts. An excerpt: Nonsense suppression activity in an assay as described above is shown in the Table 3 below, for a construct with a UGA nonsense mutation at position 190, followed by a cytosine nucleotide in-frame, (UGAC); for a construct with UAG nonsense mutation at position 190, followed by an adenine nucleotide in-frame, (UAGA); for a construct with […] nonsense mutation at position 190, followed by an adenine nucleotide in-frame, (UAAA); and a construct with a UAA nonsense mutation at position 190, followed by an cytosine nucleotide in-frame, (UAAC). Also included in Table 3 is a column (“western blot”) indicating whether treatment of cells with the indicated compound suppresses the nonsense mutation in a specific codon context (UGAA, UGAC, UAAA or UAAC) in luciferase and results in production of luciferase protein as determined by a positive signal on a western blot. A positive result in the western blot assay is indicated by a “+” and the nonsense codon and context of the codon that is suppressed.
Another assay of the present invention can evaluate compounds that promote nonsense mutation suppression. The luciferase constructs described above in FIG. 1 are engineered to harbor two epitope tags in the N-terminus of the luciferase protein. Based on luciferase protein production, these constructs qualitatively assess the level of translation-readthrough. The presence of the full-length luciferase protein produced by suppression of the premature termination codon is measured by immunoprecipitation of the suppressed luciferase protein (using an antibody against a His tag) followed by western blotting using an antibody against the second epitope (the Xpress™ epitope; Invitrogen®; Carlsbad, Calif.). These constructs are depicted in FIG. 2.
Cells that harbor the constructs of FIG. 2 show increased full-length protein production when treated with a compound of the present invention. After treatment for 20 hours, cells containing the constructs of FIG. 2 are collected and an antibody recognizing the His epitope is used to immunoprecipitate the luciferase protein. Following immunoprecipitation, western blotting is performed using the antibody to the Xpress™ epitope (Invitrogen®; Carlsbad, Calif.) to detect the truncated luciferase (produced when no nonsense suppression occurs) and to detect the full-length protein (produced by suppression of the nonsense codon). Treatment of cells with a test compound produces full-length protein and not a readthrough protein (See e.g., FIG. 3). The readthrough protein is produced if suppression of the normal termination codon occurs. Compounds of the present invention suppress the premature, i.e. nonsense mutation, but not the normal termination codon in the luciferase mRNA.

Each structure is given as a SMILES string.

`Cc1ccc(-n2cc(-c3cccc(C(=O)O)c3)cn2)cc1C` [Compound 237, 3-[1-(3,4-Dimethyl-phenyl)-1H-pyrazol-4-yl]-benzoic acid] displayed a melting point of 196 to 197 °C. In addition, the “western blot: production of luciferase protein; + and the codon context that is suppressed” value (“western blot: production” for short) in series [1] was “+; UGAC”.
Compound `O=C(O)c1ccc(-c2ccn(-c3ccc(C(F)(F)F)cc3)c2)cc1` [Compound 105, 4-[1-(4-Trifluoromethyl-phenyl)-1H-pyrrol-3-yl]-benzoic acid] returned a melting point of 315 to 317 °C. Also, the “western blot: production” value in series [1] (UAAA codon context construct) is reported as “UAAA”. Moreover, the “western blot: production” value in series [1] (UGAA codon context construct) was “+; UGAA;”. Besides, the “western blot: production” value in series [1] (UGAC codon context construct) was “UGAC;”.
Compound `O=C(O)c1cccc(-c2ccn(-c3ccc(OC(F)(F)F)cc3)n2)c1` [Compound 66, 3-[1-(4-Trifluoromethoxy-phenyl)-1H-pyrazol-3-yl]-benzoic acid] had a melting point of 171 to 174 °C. For the same compound, in series [1] (UAAC codon context construct), the “western blot: production” value is listed as “UAAC”. Also, the “western blot: production” value in series [1] (UGAC codon context construct) is listed as “+UGAC;”.
As for `O=C(O)c1cccc(-c2cnn(-c3ccc4c(c3)OCCO4)c2)c1` [Compound 225, 3-[1-(2,3-Dihydro-benzo[1,4]dioxin-6-yl)-1H-pyrazol-4-yl]-benzoic acid], the melting point was 201 to 203 °C.
Same read-out and setting: the value for `O=C(O)c1cccc(-n2cc(-c3nc4ccccc4o3)cn2)c1` [Compound 121, 3-(4-Benzooxazol-2-yl-pyrazol-1-yl)-benzoic acid] was 331 to 333 °C; that for `O=C(O)c1cccc(-n2ccc(-c3ccc(C(F)(F)F)cc3)n2)c1` [Compound 94] was 225 to 227 °C.
In the case of `CC(C)c1ccc(-n2cc(-c3ccc(C(=O)O)cc3)cn2)cc1` [Compound 229, 4-[1-(4-Isopropyl-phenyl)-1H-pyrazol-4-yl]-benzoic acid], the melting point was in the range of 215 to 218 °C.
